# Measured values published in US10308652B2, “Tricyclic heterocyclic compounds useful as inhibitors of TNF” (BRISTOL-MYERS SQUIBB COMPANY, priority 2015, dated 2019).
# Molecular target: TNFα (Homo sapiens (Human), UniProt P01375)
# Test: TNF induced HEK-Blue assay
# Format: cell-based
# Settings: TNFα 0.5 ng/ml; HEK-Blue-CD40L cells, NF-κB-driven secreted alkaline phosphatase reporter; 18 h
# Description: TNF or CD40L-induced HEK-Blue Assay Test compounds serially diluted in DMSO were plated in an assay plate (Labcyte, Cat. #LP-0200) at final concentrations ranging from 0.004 μM to 25μM. TNFα (final concentration 0.5 ng/ml) or CD4OL (final concentration 30 ng/ml) in assay buffer [DMEM, 4.5 g/l glucose (Gibco, Cat. 21063-029), 10% FBS (Sigma, F4135), 1% Penicillin-Streptomycin (Gibco, Cat. 15140-122), 1% Anti-Anti (Gibco, Cat. 15240-112) and 2 mM L-glutamine (Gibco, Cat. 25030-081)] was then added to the assay plate. After a 30 minute pre-incubation at 37° C. and 5% CO2, HEK-Blue-CD40L cells (InvivoGen, Cat. Code hkb-cd40) containing a NF-κB-driven secreted alkaline phosphatase reporter gene were seeded into the assay plate at a density of 20,000 cells per well. This plate was then incubated for 18 h at 37° C. and 5% CO2. Secreted alkaline phosphatase expression was measured using QUANTI-Blue (InvivoGen, Cat. Code rep-qb1) according to manufacturer's specifications and the assay plate was read on a PerkinElmer Envision at 620 nm. Inhibition data for the test compound over a range of concentrations was plotted as percentage inhibition of the test compound (100%=maximum inhibition). IC50 values were determined after correcting for background [(sample read−mean of low control)/(mean of high control−mean of low control)] where by the low control is DMSO without stimulation and high control is DMSO with stimulation. The IC50 is defined as the concentration of test compound which produces 50% inhibition and was quantified using the 4 parameter logistic equation to fit the data.
# Sequence of TNFα (P01375 77-233): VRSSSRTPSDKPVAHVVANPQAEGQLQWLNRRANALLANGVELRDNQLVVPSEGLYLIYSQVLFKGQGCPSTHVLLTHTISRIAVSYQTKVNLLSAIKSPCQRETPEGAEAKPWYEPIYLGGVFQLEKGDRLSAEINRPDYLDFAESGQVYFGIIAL
row,IC50 [µM],Compound
1,1 to 10,"(+/−)-cis-9-(2-(difluoromethoxy)phenyl)-2-(4-(2-hydroxybutan-2-yl)phenyl)-6,7,8,9-tetrahydropyrido[4′,3′:4,5]imidazo[1,2-b]pyridazin-6-ol [Example 50]"
2,10 to 25,"COc1ccc(-c2ccc3nc4c(n3n2)[C@@H](c2ccccc2OC(F)F)NC[C@H]4F)cn1 (racemic) [Example 11, (+/−)-cis-9-(2-(difluoromethoxy)phenyl)-6-fluoro-2-(6-methoxypyridin-3-yl)-6,7,8,9-tetrahydropyrido [4′,3′:4,5]imidazo[1,2-b]pyridazine]"
3,1 to 10,"(+/−)-cis-9-(2-(difluoromethoxy)phenyl)-2-(4-(3-hydroxypentan-3-yl)phenyl)-6,7,8,9-tetrahydropyrido[4′,3′:4,5]imidazo[1,2-b]pyridazin-6-ol [Example 49]"
4,1 to 10,"Cc1cc(F)ccc1[C@@H]1NC[C@@H](O)c2nc3ccc(-c4ccc(C(C)(C)O)cc4)nn3c21 (racemic) [Example 38, (+/−)-trans-9-(4-fluoro-2-methylphenyl)-2-(4-(2-hydroxypropan-2-yl)phenyl)-6,7,8,9-tetrahydropyrido[4′,3′:4,5]imidazo[1,2-b]pyridazin-6-ol]"
5,1 to 10,"CC(C)(O)c1ccc(-c2ccc3nc4c(n3n2)[C@H](c2ccccc2OC(F)F)NC[C@@H]4O)cc1 [Example 7, Cis-(6S,9S)-9-(2-(difluoromethoxy)phenyl)-2-(4-(2-hydroxypropan-2-yl)phenyl)-6,7,8,9-tetrahydropyrido[4′,3′:4,5]imidazo[1,2-b]pyridazin-6-ol]"
6,1 to 10,"Cn1cc(-c2ccc3nc4c(n3n2)C(c2ccccc2OC(F)F)OCC4)cn1 (centres unmarked) [Example 64, 9-(2-(Difluoromethoxy)phenyl)-2-(1-methyl-1H-pyrazol-4-yl)-7,9-dihydro-6H-pyrano[4′,3′:4,5]imidazo[1,2-b]pyridazine]"
7,1 to 10,"O=C(c1ccc(-c2ccc3nc4c(n3n2)C(c2ccccc2OC(F)F)NCC4O)cc1)N1CCOCC1 (centres unmarked) [Example 19, (4-(9-(2-(difluoromethoxy)phenyl)-6-hydroxy-6,7,8,9-tetrahydropyrido[4′,3′:4,5]imidazo[1,2-b]pyridazin-2-yl)phenyl)(morpholino)methanone]"
8,1 to 10,"CCOC(C)c1ccc(-c2ccc3nc4c(n3n2)C(c2ccccc2OC(F)F)NCC4O)cc1 (racemic) [Example 35, (+/−)-cis-9-(2-(difluoromethoxy)phenyl)-2-(4-(1-ethoxyethyl)phenyl)-6,7,8,9-tetrahydropyrido[4′,3′:4,5]imidazo[1,2-b]pyridazin-6-ol]"
9,< 1,"(+/−)-trans-9-(4-fluoro-2-methylphenyl)-2-(4-(2-hydroxypropan-2-yl)phenyl)-6,7,8,9-tetrahydropyrido[4′,3′:4,5]imidazo[1,2-b]pyridazin-6-ol [Example 44]"
10,1 to 10,"CC(C)(O)c1ncc(-c2ccc3nc4c(n3n2)[C@@H](c2ccccc2OC(F)F)NC[C@H]4F)cn1 (racemic) [Example 10, (+/−)-cis-2-(5-(9-(2-(difluoromethoxy)phenyl)-6-fluoro-6,7,8,9-tetrahydropyrido [4′,3′:4,5]imidazo[1,2-b]pyridazin-2-yl)pyrimidin-2-yl)propan-2-ol]"
11,< 1,"CC(C)(O)c1ccc(-c2ccc3nc4c(n3n2)[C@H](c2ccccc2OC(F)F)NC[C@@H]4F)cc1 (racemic) [Example 8, (+/−)-Cis-2-(4-((6S,9S)-9-(2-(difluoromethoxy)phenyl)-6-fluoro-6,7,8,9-tetrahydropyrido [4′,3′:4,5]imidazo[1,2-b]pyridazin-2-yl)phenyl)propan-2-ol]"
12,1 to 10,"O=C(NC1CC1)c1ccc(-c2ccc3nc4c(n3n2)C(c2ccccc2OC(F)F)NCC4O)cn1 (centres unmarked) [Example 21, N-cyclopropyl-5-(9-(2-(difluoromethoxy)phenyl)-6-hydroxy-6,7,8,9-tetrahydropyrido[4′,3′:4,5]imidazo[1,2-b]pyridazin-2-yl)picolinamide]"
13,1 to 10,"CC(C)(O)c1ccc(-c2ccc3nc4c(n3n2)[C@H](c2cc(Cl)ccc2OC(F)F)NC[C@H]4O)cc1 (racemic) [Example 28, (+/−)-trans-9-(5-chloro-2-(difluoromethoxy)phenyl)-2-(4-(2-hydroxypropan-2-yl)phenyl)-6,7,8,9-tetrahydropyrido[4′,3′:4,5]imidazo[1,2-b]pyridazin-6-ol]"
14,10 to 25,"NC(=O)c1ccc(-c2ccc3nc4c(n3n2)[C@@H](c2ccccc2OC(F)F)NC[C@H]4O)cc1Cl (racemic) [Example 48, (+/−)-cis-2-chloro-4-(9-(2-(difluoromethoxy)phenyl)-6-hydroxy-6,7,8,9-tetrahydropyrido[4′,3′:4,5]imidazo[1,2-b]pyridazin-2-yl)benzamide]"
15,10 to 25,"COc1ccc(-c2ccc3nc4c(n3n2)[C@H](c2ccccc2OC(F)F)NC[C@H]4O)cn1 (racemic) [Example 51, (+/−)-trans-9-(2-(difluoromethoxy)phenyl)-2-(6-methoxypyridin-3-yl)-6,7,8,9-tetrahydropyrido[4′,3′:4,5]imidazo[1,2-b]pyridazin-6-ol]"
16,1 to 10,"COCCOc1ccc(-c2ccc3nc4c(n3n2)[C@@H](c2ccccc2OC(F)F)NC[C@H]4O)cc1 (racemic) [Example 34, (+/−)-cis-9-(2-(difluoromethoxy)phenyl)-2-(4-(2-methoxyethoxy)phenyl)-6,7,8,9-tetrahydropyrido[4′,3′:4,5]imidazo[1,2-b]pyridazin-6-ol]"
17,1 to 10,"CC(C)(O)c1ccc(-c2ccc3nc4c(n3n2)[C@H](c2cc(Cl)ccc2C(F)(F)F)NC[C@H]4O)cc1 (racemic) [Example 55, (+/−)-trans-9-(5-chloro-2-(trifluoromethyl)phenyl)-2-(4-(2-hydroxypropan-2-yl)phenyl)-6,7,8,9-tetrahydropyrido [4′,3′:4,5]imidazo[1,2-b]pyridazin-6-ol]"
18,10 to 25,"CC(C)(O)c1ncc(-c2ccc3nc4c(n3n2)[C@H](c2ccccc2OC(F)F)OC[C@@H]4O)cn1 (relative stereo) [Example 61, Cis-9-(2-(difluoromethoxy)phenyl)-2-(2-(2-hydroxypropan-2-yl)pyrimidin-5-yl)-6,9-dihydro-7H-pyrano[4′,3′:4,5]imidazo[1,2-b]pyridazin-6-ol]"
19,< 1,"CC(C)(O)c1ccc(-c2ccc3nc4c(n3n2)C(c2ccccc2OC(F)F)NCC4)cc1 (racemic) [Example 2, (+/−)-2-(4-(9-(2-(Difluoromethoxy)phenyl)-6,7,8,9-tetrahydropyrido [4′,3′:4,5]imidazo[1,2-b]pyridazin-2-yl)phenyl)propan-2-ol]"
20,1 to 10,"CC(C)(O)c1ccc(-c2ccc3nc4c(n3n2)C(c2ccccc2OC(F)F)OCC4(O)c2ccncc2)cc1 (centres unmarked) [Example 60, 9-(2-(Difluoromethoxy)phenyl)-2-(4-(2-hydroxypropan-2-yl)phenyl)-6-(pyridin-4-yl)-6,9-dihydro-7H-pyrano[4′,3′:4,5]imidazo[1,2-b]pyridazin-6-ol]"
21,1 to 10,"CC(C)(O)c1ccc(-c2ccc3nc4c(n3n2)C(c2ccccc2OC(F)F)OCC4(C)O)cc1 (centres unmarked) [Example 59, 9-(2-(Difluoromethoxy)phenyl)-2-(4-(2-hydroxypropan-2-yl)phenyl)-6-methyl-6,9-dihydro-7H-pyrano[4′,3′:4,5]imidazo[1,2-b]pyridazin-6-ol]"
22,10 to 25,"O=C(NC1CC1)c1ccc(-c2ccc3nc4c(n3n2)C(c2ccccc2OC(F)F)NCC4O)cc1 (centres unmarked) [Example 20, N-cyclopropyl-4-(9-(2-(difluoromethoxy)phenyl)-6-hydroxy-6,7,8,9-tetrahydropyrido[4′,3′:4,5]imidazo[1,2-b]pyridazin-2-yl)benzamide]"
23,< 1,"CC(C)(O)c1ccc(-c2ccc3nc4c(n3n2)C(c2ccccc2OC(F)F)NCC4F)cc1 [Example 12, cis-(1S,4S)-2-(4-(9-(2-(difluoromethoxy)phenyl)-6-fluoro-6,7,8,9-tetrahydropyrido[4′,3′:4,5]imidazo[1,2-b]pyridazin-2-yl)phenyl) propan-2-ol]"
24,< 1,"CC(C)(O)c1ncc(-c2ccc3nc4c(n3n2)C(c2ccccc2OC(F)F)OCC4)cn1 (centres unmarked) [Example 63, 2-(5-(9-(2-(Difluoromethoxy)phenyl)-7,9-dihydro-6H-pyrano[4′,3′:4,5]imidazo[1,2-b]pyridazin-2-yl)pyrimidin-2-yl)propan-2-ol]"
25,1 to 10,"CNS(=O)(=O)c1ccc(-c2ccc3nc4c(n3n2)[C@@H](c2ccccc2OC(F)F)NC[C@H]4O)cc1 (racemic) [Example 40, (+/−)-cis-4-(9-(2-(difluoromethoxy)phenyl)-6-hydroxy-6,7,8,9-tetrahydropyrido[4′,3′:4,5]imidazo[1,2-b]pyridazin-2-yl)-N-methylbenzenesulfonamide]"
26,1 to 10,"CCc1ccccc1[C@H]1NC[C@@H](O)c2nc3ccc(-c4ccc(C(C)(C)O)cc4)nn3c21 (racemic) [Example 25, (+/−)-cis-9-(2-ethylphenyl)-2-(4-(2-hydroxypropan-2-yl)phenyl)-6,7,8,9-tetrahydropyrido[4′,3′:4,5]imidazo[1,2-b]pyridazin-6-ol]"
